The text below walks through data of article PMC3896386 (Journal of medicinal chemistry, 2013).

Test [1] has as its target T1, RyR2-R4496C mutant HEK293 cell line (Mus musculus, UniProt E9Q401, R4495C). To be noted: previously reported; cited from earlier work.
Test [2] addresses T1, RyR2-R4496C mutant HEK293 cell line.

T1 sequence (E9Q401 whole entry R4495C): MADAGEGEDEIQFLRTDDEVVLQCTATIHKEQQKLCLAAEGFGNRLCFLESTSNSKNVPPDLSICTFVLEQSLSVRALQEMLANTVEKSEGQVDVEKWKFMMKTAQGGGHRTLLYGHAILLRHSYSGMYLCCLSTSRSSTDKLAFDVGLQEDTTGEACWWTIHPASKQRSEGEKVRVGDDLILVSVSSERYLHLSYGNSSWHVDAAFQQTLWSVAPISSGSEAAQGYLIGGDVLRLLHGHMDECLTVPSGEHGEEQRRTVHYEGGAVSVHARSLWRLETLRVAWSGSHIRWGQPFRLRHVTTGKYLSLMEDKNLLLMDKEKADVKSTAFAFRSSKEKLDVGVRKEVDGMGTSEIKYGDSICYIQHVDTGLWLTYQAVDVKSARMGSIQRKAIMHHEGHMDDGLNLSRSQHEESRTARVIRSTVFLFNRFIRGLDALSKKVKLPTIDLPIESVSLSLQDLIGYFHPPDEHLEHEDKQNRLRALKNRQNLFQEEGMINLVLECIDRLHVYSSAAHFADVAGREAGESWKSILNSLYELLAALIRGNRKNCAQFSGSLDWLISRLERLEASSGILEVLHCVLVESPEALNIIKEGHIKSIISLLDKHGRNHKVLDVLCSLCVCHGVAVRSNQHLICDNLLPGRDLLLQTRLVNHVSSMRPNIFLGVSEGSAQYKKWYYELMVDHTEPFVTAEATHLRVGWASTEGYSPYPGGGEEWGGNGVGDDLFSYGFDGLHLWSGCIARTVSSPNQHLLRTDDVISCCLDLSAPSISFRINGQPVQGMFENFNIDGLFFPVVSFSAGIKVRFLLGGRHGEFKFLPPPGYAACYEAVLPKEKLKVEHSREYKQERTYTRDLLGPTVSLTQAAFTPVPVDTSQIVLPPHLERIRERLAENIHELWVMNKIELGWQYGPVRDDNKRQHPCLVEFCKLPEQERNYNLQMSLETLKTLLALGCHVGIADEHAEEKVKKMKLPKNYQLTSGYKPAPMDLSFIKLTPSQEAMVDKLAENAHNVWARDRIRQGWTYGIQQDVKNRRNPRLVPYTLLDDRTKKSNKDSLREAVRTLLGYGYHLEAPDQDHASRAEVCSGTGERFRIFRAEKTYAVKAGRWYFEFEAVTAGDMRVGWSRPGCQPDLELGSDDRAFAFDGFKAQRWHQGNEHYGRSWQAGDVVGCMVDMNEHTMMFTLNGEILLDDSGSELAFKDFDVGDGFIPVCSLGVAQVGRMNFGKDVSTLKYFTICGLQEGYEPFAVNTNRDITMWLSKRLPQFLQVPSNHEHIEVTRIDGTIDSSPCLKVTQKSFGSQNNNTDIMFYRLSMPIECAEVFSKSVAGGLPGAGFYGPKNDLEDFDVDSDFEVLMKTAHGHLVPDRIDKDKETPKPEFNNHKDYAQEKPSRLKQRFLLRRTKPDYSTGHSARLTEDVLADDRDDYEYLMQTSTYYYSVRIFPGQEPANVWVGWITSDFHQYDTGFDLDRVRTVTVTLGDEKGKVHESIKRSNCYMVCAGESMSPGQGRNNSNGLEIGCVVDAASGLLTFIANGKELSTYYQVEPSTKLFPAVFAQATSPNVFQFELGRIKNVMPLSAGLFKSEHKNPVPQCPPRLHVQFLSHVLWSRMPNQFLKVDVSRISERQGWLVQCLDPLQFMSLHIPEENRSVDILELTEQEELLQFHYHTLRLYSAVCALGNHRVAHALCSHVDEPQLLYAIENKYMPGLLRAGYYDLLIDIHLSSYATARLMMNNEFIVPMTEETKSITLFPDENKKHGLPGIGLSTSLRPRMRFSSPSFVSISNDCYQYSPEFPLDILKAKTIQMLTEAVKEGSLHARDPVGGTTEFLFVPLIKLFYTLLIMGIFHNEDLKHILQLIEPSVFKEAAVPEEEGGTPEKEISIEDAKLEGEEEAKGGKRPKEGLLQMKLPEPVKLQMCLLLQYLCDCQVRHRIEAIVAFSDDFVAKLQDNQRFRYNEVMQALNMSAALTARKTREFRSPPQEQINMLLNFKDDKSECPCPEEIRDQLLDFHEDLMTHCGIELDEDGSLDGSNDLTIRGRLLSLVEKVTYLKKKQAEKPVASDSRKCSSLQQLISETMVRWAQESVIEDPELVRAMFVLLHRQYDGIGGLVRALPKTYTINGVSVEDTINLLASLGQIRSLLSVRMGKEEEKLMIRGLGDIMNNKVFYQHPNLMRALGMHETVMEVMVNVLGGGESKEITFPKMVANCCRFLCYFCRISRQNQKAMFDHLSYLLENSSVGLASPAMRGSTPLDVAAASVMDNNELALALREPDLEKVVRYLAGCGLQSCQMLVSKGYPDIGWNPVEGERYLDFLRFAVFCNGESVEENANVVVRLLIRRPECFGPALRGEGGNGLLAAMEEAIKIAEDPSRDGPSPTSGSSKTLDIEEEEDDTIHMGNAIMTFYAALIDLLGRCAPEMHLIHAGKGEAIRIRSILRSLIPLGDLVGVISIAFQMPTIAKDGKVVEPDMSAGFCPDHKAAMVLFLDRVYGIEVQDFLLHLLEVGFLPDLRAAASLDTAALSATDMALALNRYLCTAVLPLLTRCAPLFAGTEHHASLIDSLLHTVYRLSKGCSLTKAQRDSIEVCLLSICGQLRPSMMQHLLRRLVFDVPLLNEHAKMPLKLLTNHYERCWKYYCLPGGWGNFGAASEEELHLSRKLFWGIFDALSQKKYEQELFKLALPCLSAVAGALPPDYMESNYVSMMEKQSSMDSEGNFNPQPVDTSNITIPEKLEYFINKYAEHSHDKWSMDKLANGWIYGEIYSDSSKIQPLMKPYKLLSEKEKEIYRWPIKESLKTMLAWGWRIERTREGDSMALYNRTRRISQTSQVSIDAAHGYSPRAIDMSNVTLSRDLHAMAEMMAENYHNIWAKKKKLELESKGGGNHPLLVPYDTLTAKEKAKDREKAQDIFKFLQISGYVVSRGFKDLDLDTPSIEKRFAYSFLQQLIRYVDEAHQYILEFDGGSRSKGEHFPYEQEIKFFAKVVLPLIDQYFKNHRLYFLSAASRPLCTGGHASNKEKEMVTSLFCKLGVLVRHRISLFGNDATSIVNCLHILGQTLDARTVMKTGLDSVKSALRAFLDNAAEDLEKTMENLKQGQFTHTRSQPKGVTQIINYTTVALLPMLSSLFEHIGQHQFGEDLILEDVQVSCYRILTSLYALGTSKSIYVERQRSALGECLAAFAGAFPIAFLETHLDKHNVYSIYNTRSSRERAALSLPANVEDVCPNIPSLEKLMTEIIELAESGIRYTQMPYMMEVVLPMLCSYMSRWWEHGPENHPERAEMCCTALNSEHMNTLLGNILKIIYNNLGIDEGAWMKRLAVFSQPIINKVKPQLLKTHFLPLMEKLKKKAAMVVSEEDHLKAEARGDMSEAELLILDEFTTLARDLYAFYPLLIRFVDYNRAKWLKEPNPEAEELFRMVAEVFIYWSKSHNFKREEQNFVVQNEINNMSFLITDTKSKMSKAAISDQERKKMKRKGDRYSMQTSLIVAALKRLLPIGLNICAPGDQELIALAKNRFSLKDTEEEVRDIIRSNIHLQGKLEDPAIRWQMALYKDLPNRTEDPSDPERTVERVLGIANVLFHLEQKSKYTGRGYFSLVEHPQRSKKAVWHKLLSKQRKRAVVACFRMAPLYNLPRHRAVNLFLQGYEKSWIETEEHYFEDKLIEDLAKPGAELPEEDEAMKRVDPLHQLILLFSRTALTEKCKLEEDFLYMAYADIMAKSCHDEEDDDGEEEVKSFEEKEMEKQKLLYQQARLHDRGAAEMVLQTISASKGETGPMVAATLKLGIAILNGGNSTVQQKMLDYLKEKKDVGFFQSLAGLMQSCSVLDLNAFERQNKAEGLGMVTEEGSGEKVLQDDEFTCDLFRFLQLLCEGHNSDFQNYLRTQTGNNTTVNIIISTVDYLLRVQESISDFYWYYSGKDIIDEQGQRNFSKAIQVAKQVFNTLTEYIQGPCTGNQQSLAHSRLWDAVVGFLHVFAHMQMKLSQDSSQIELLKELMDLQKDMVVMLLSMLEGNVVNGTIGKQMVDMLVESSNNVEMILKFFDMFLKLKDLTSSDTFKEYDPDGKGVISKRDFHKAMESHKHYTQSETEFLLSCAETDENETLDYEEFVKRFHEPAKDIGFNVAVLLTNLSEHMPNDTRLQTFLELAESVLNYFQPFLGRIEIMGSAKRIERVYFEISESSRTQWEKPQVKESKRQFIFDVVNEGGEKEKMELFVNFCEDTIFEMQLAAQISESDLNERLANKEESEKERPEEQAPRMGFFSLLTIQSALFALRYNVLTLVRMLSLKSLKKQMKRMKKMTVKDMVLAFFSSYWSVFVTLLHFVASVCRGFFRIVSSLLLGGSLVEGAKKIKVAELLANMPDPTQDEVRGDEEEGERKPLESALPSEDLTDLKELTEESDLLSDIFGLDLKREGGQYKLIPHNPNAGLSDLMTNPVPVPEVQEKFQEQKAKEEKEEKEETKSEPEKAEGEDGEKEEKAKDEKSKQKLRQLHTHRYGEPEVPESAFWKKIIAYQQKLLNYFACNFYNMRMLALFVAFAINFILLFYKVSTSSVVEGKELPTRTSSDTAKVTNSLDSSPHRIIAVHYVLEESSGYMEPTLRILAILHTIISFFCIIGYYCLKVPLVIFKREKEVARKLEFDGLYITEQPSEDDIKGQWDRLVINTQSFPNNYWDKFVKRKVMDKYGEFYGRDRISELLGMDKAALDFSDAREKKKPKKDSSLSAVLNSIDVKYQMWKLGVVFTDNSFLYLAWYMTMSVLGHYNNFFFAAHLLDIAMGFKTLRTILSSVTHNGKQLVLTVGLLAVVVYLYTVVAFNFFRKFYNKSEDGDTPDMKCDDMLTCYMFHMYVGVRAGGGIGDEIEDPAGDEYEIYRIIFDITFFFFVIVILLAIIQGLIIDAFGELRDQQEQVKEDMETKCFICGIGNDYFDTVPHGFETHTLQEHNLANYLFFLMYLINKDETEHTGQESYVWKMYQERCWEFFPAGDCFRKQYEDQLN

Take `COc1ccccc1OCCNCC(O)COc1cccc2[nH]c3ccccc3c12` (stereo not drawn) [carvedilol 1, carvedilol]: the “ability to inhibit SOICR” value in test [1] was “ca. 10 μmolar”. Turning to `COc1ccccc1OCCN1CCC(COc2cccc3[nH]c4ccccc4c23)OCC1=O` (stereo not drawn) [compound 35, 7-[(9H-carbazol-4-yloxy)methyl]-4-[2-(2-methoxyphenoxy)ethyl]-1,4-oxazepan-3-one], the “decrease of SOICR-inhibiting activity on lactamization of 34” value in test [2] (relative to 34) is reported as “more than 6 fold”. As to `COc1ccccc1OCCNCC(O)COc1ccc2c(c1)Nc1ccccc1S2(=O)=O` (stereo not drawn) [compound 67, 2-(2-Hydroxy-3-{[2-(2-methoxyphenoxy)ethyl]amino}propoxy)-10H-5λ6,10-phenothiazine-5,5-dione], the “decrease of SOICR-inhibiting activity on oxidation of 66 to the sulfone” value in test [2] (relative to 66) is recorded as “more than 10 fold”.
